Where “and” joins values, the source holds several entries; their conditions need not be identical. Identical values can stand only once.

This test relates to COR L88 complex tumor spheroid viability. Description: Anticancer human tumor COR L88 cell line growth inhibition.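 For all read-outs here: compound exposure lasted 7 days before viability readout.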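 For viability, T/C: percent of DMSO vehicle-treated spheroids = 100%.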 Particulars: for viability, T/C: stronger effect = lower value. From the text:
Multicellular complex tumor spheroid response to DNA repair inhibitors in combination with DNA-damaging drugs
This study explores the anticancer activities of DNA-damaging drugs and inhibitors of DNA damage repair, both as single agents and in combinations. Complex tumor spheroids comprised of malignant cells, endothelial cells and mesenchymal stem cells served as an in vitro model for human solid tumors. This model system incorporates physiologically relevant features and patient-derived or established malignant cell lines with clinically relevant genetic alterations from many tumor types. Twenty-six patient-derived or established malignant cell lines were evaluated representing sarcoma, melanoma, small cell lung cancer (SCLC), non-small cell lung cancer (NSCLC), as well as bladder, ovarian and pancreatic cancers. The concentration ranges selected for each drug and investigational agent were based upon clinically achievable concentrations if the clinical Cmax of the agent was known.
Compounds. The drugs and compounds olaparib (NSC753686), talazoparib (NSC767125), berzosertib (NSC777718), elimusertib (NSC800525), nedisertib (NSC802822), VX-984 (NSC792969), AZD-1390 (NSC803789), temozolomide (NSC362856), topotecan (NSC609699), trabectedin (NSC813783), staurosporine (NSC755774), and gemcitabine (NSC613327) were obtained from the National Cancer Institute (NCI) Developmental Therapeutics Program Chemical Repository. The FDA-approved anticancer drug set is available from the Developmental Therapeutics Program at https://dtp.cancer.gov/organization/dscb/obtaining/available_plates.htm. […] The stock solutions were prepared in dimethyl sulfoxide (DMSO, Sigma-Aldrich, St. Louis, MO, cat. D2650) at 400-fold the tested concentration and stored at -70 degrees C. Prior to their use, the stock solutions were diluted in fresh medium and the final DMSO concentration in the assay was 0.25% (v/v). All drugs and investigational agents were tested over a range starting from a high concentration at or near the clinical Cmax and decreasing in half-log increments. If the clinical Cmax for an agent had not been determined, the highest concentration tested was 10 microM.
Cell Lines. The patient-derived cancer cell (PDC) lines: 156681-154-R-J1-PDC, 283228-195-R-J1-PDC, 287954-098-R-J1-PDC, 292921-168-R-J2-PDC, 349418-098-R-PDC, 425362-245-T-J1-PDC, 556581-035-R-J1-PDC, and BL0293-F563-PDC were received from the NCI Patient-Derived Models Repository (PDMR, https://pdmr.cancer.gov). The established cell lines HS-SY-2 (RRID:CVCL_8719), MPNST, and SYO-1 (RRID:CVCL_7146) were obtained from the Sloan Kettering Institute. The alveolar soft parts sarcoma cell line ASPS-1 (RRID:CVCL_S738) was established at the NCI and grown from internal seed stocks. The following established cell lines were purchased from the American Type Culture Collection (ATCC, Manassas, VA): G-401 (ATCC, cat. CRL-1441, RRID:CVCL_0270), SW982 (ATCC, cat. HTB-93, RRID:CVCL_1734), VA-ES-BJ (ATCC, cat. CRL-2138, RRID:CVCL_1785), NCI-H719 (ATCC, cat. CRL-5837, RRID:CVCL_1582), NCI-H196 (ATCC, cat. CRL-5823, RRID:CVCL_1509), NCI-H841 (ATCC, cat. CRL-5845, RRID:CVCL_1595), NCI-H1618 (ATCC, cat. CRL-5879, RRID:CVCL_1480), NCI-H1876 (ATCC, cat. CRL-5902, RRID:CVCL_1503), DMS 114 (ATCC, cat. CRL-2066; RRID:CVCL_1174), NCI-H211 (ATCC, cat. CRL-5824; RRID:CVCL_1529), and SW 1271 (ATCC, cat. CRL-2177, RRID:CVCL_1716). The small cell lung cancer cell line COR-L88 was purchased from Sigma-Aldrich (cat. 92031917-1VL, RRID:CVCL_1141). The non-small cell lung cancer cell lines NCI-H226 (RRID:CVCL_1544) and NCI-H322M (RRID:CVCL_1557) were established at the NCI and grown from internal seed stocks. Pooled donor human umbilical vein endothelial cells (HUVEC, Lonza, cat. CC-2519) and human mesenchymal stem cells (hMSC, Lonza, cat. PT-2501) were purchased from Lonza (Walkersville, MD).
Cell Culture. All cells were maintained in an incubator at 37 degrees C and 5% CO2 with 95% humidity. […]

The mark [1] stands for this setting: compound alone, run of 10/17/2019.
The mark [2] stands for this setting: compound alone, run of 10/25/2019.

As for `CC(C)n1c(=O)n(C)c2cnc3cc(F)c(-c4ccc(OCCCN5CCCCC5)nc4)cc3c21`, the viability, T/C – broadly, the result in the treated group divided by that in the control group, in per cent – is, setting by setting: (compound 0.0316 µM) 103% and 92.5% and 102%; (compound 0.1 µM) 113% and 103% (2×); (compound 0.316 µM) 110% and 99.5% and 98.2%; (compound 1 µM) 94.8% and 88.6% and 99%; (compound 3.16 µM) 95.3% and 89.8% and 87.5%; (compound 10 µM) 56.5% and 61% and 56.6%. Besides, under “curve of compound”, the IC50 – broadly, the point on the concentration scale where inhibition reaches its midpoint – is greater than 10000 nM.

Turning to `CC1COCCN1c1cc(-c2ccnn2C)c2ccnc(-c3ccn[nH]3)c2n1` (stereo not drawn), the viability, T/C is, setting by setting: (compound 0.0316 µM) 94.4% and 93.6% and 97.8%; (compound 0.1 µM) 59.7% and 70.8% and 77%; (compound 0.316 µM) 34.2% and 52% and 53.1%; (compound 1 µM) 22.5% and 30.1% and 36%; (compound 3.16 µM) 9.11% and 13.8% and 14.6%; (compound 10 µM) 3.91% and 5.8% and 5.02%. Further, under “curve of compound”, the IC50 is 159 nM and 319 nM and 403 nM.

`CC[C@@]1(O)C(=O)OCc2c1cc1n(c2=O)Cc2cc3c(CN(C)C)c(O)ccc3nc2-1`: the viability, T/C runs as follows: (compound 0.00949 µM) 76% [middle of 10 runs]; (compound 0.03 µM) 55% [middle of 10 runs]; (compound 0.0949 µM) 52% [middle of 10 runs]; (compound 0.3 µM) 48.1% [middle of 10 runs]. For the same compound, the IC50 under setting [1] was 45.7 nM [middle of 5 runs]; the IC50 under setting [2] is > 300 nM and 163 nM and 172 nM.

As for `CNCc1ccc(-c2cc(-c3nc(-c4ccc(S(=O)(=O)C(C)C)cc4)cnc3N)on2)cc1`, the viability, T/C (compound 0.00949 µM) was 98.5% and 103% and 105%; the viability, T/C (compound 0.03 µM) was 111% and 118% and 104%; the viability, T/C (compound 0.0949 µM) was 109% and 107% and 101%; the viability, T/C (compound 0.3 µM) is 87% and 84.6% and 56.4%; the viability, T/C (compound 0.949 µM) is 40.9% and 47.2% and 22.6%; the viability, T/C (compound 3 µM) is 11.8% and 11.3% and 5.68%. Under “curve of compound”, the IC50 is 753 nM and 848 nM and 391 nM.

Consider `COc1cc(C)[nH]c(=O)c1CN1CCc2c(Cl)cc(C(OC)C3COC3)c(Cl)c2C1=O` (stereo not drawn), for which the viability, T/C is, setting by setting: (compound 0.0316 µM) 109% and 91.5% and 89.8%; (compound 0.1 µM) 100% and 89.6% and 97%; (compound 0.316 µM) 95.5% and 80.1% and 98.1%; (compound 1 µM) 89.2% and 76.7% and 91.4%; (compound 3.16 µM) 96.1% and 84.8% and 85.8%; (compound 10 µM) 92.2% and 75.5% and 90.1%. Moreover, the IC50 (curve of compound) was greater than 10000 nM.

As to `COc1cc2c(cc1O)CCNC21CSC2c3c(OC(C)=O)c(C)c4c(c3C(COC1=O)N1C(O)C3Cc5cc(C)c(OC)c(O)c5C(C21)N3C)OCO4` (stereo not drawn), the viability, T/C by setting is: (compound 30 pM) 103% [middle of 10 runs]; (compound 94.9 pM) 110% [middle of 10 runs]; (compound 0.0003 µM) 71.5% [middle of 10 runs]; (compound 0.000949 µM) 59.8% [middle of 10 runs]; (compound 0.003 µM) 0.67% [middle of 10 runs]. Besides, the IC50 under setting [2] was 1.02 nM [middle of 10 runs].

In the case of `COc1ccc([C@@H](O)c2cc(-c3ncnc4cc(N5CCOCC5)ccc34)c(F)cc2Cl)nn1`, the viability, T/C is 108% and 105% and 101% (compound 0.0316 µM); 98.8% and 102% and 98.1% (compound 0.1 µM); 103% and 93.9% and 104% (compound 0.316 µM); 76.1% and 83% and 81.6% (compound 1 µM); 56% and 64.4% and 54.8% (compound 3.16 µM); 33.7% and 39% and 36.1% (compound 10 µM). Further, for the setting “curve of compound”, the IC50 was 4010 nM and 6100 nM.

As for `Cc1cc(C)c(CNC(=O)c2cc(-c3ccc(CN4CCOCC4)cc3)cc3c2cnn3C2CCCC2)c(=O)[nH]1`, the viability, T/C runs as follows: (compound 0.0316 µM) 92.8% and 89.3% and 93.7%; (compound 0.1 µM) 102% and 98.3% and 89.8%; (compound 0.316 µM) 101% and 100% and 96.4%; (compound 1 µM) 84.1% and 93.3% and 95.8%; (compound 3.16 µM) 85.2% and 88.7% and 77.4%; (compound 10 µM) 44.7% and 56.8% and 52.6%. Further, the IC50 (curve of compound) is 8670 nM and > 10000 nM.

For the compound `Cc1sc2c(c1C)C(c1ccc(Cl)cc1)=NC(CC(=O)Nc1ccc(O)cc1)c1nnc(C)n1-2` (stereo not drawn), the viability, T/C runs as follows: (compound 0.00949 µM) 93.4% and 99.2% and 89.1%; (compound 0.03 µM) 94.7% and 94.8% and 84.9%; (compound 0.0949 µM) 103% and 94.4% and 85.7%; (compound 0.3 µM) 63.8% and 67.1% and 47.9%; (compound 0.949 µM) 37.4% and 33.8% and 21.4%; (compound 3 µM) 20.6% and 19.2% and 17.3%. For the same compound, under “curve of compound”, the IC50 was 534 nM and 543 nM and 283 nM.

Consider `Cn1ncnc1[C@H]1c2n[nH]c(=O)c3cc(F)cc(c23)N[C@@H]1c1ccc(F)cc1`, for which the viability, T/C runs as follows: (compound 0.00949 µM) 88.5% and 92.9% and 87.1%; (compound 0.03 µM) 79.6% and 66.2% and 79.5%; (compound 0.0949 µM) 66.9% and 62.7% and 56%; (compound 0.3 µM) 59.6% and 54.9% and 49.2%; (compound 0.949 µM) 43.3% and 45% and 39.5%; (compound 3 µM) 43.6% and 37.6% and 40.6%. Besides, the IC50 (curve of compound) is 665 nM and 353 nM and 293 nM.

Turning to `Cn1nnc2c(C(N)=O)ncn2c1=O`, the viability, T/C (compound 1 µM) was 96.2% [middle of 10 runs]; the viability, T/C (compound 3.16 µM) was 96.8% [middle of 10 runs]; the viability, T/C (compound 10 µM) is 95% [middle of 10 runs]; the viability, T/C (compound 31.6 µM) was 84.1% [middle of 10 runs]; the viability, T/C (compound 100 µM) was 70.6% [middle of 10 runs]. In addition, the IC50 under setting [1] was greater than 100000 nM.

`O=C(c1cc(Cc2n[nH]c(=O)c3ccccc23)ccc1F)N1CCN(C(=O)C2CC2)CC1`: the viability, T/C by setting is: (compound 0.0949 µM) 97.2% and 87.7% and 107%; (compound 0.3 µM) 98.2% and 101% and 103%; (compound 0.949 µM) 101% and 97.9% and 94.2%; (compound 3 µM) 85.7% and 87.9% and 90.7%; (compound 9.49 µM) 61.5% and 67.3% and 70.3%; (compound 30 µM) 49.8% and 50.5% and 58.2%. Besides, the IC50 (curve of compound) was greater than 30000 nM.

On to `[2H]c1nc(C)nc([2H])c1-c1cc(NC[C@@H](C)c2cccc3c(C(=O)NC)ccnc23)ncn1`, for which the viability, T/C by setting is: (compound 0.0316 µM) 101% and 94.7% and 105%; (compound 0.1 µM) 99.9% and 96.5% and 98.1%; (compound 0.316 µM) 109% and 101% and 102%; (compound 1 µM) 88.5% and 106% and 102%; (compound 3.16 µM) 92.1% and 95.2% and 96.4%; (compound 10 µM) 91.8% and 97.2% and 103%. For the same compound, where the note is “curve of compound”, the IC50 is greater than 10000 nM.

These data come from PubChem BioAssay AID1845201 (Molecular Pharmacology Branch, DTP, NCI, 2023).
